Measured values published in patent US8829029B2, “Dual modulators of 5HT2A and D3 receptors” (Hoffmann-La Roche Inc., priority 2008, dated 2014).

Legend:
[1] = biological target: human 5-HT2A serotonin receptor (Homo sapiens (Human), UniProt P28223); assay: Radioligand binding ([3H]-ketanserin) to cloned human 5-HT2A receptor expressed in HEK-293 EBNA cells; conditions: membranes of transfected HEK-293 EBNA cells, 1.1 nM [3H]-ketanserin, 1 h at RT
Experimental: The ability of the compounds to bind to the 5-HT2A, D3 and D2 receptors was determined using radioligand binding to cloned receptors selectively expressed in HEK-293 EBNA cells.
(§1) HEK-293 EBNA cells were transiently transfected with expression plasmids encoding for the human D2 or D3 dopamine- or for the human 5-HT2A serotonin receptor, respectively. The cells were harvested 48 h post-transfection, washed three times with cold PBS and stored at −80° C. prior to use. The pellet was suspended in cold 50 mM Tris-HCl buffer containing 10 mM EDTA (pH 7.4) and homogenized with a Polytron (Kinematica AG, Basel, Switzerland) for 20-30 sec at 12,000 rpm. After centrifugation at 48,000×g for 30 min at 4° C., the pellet was resuspended in cold 10 mM Tris-HCl buffer containing 0.1 mM EDTA (pH 7.4), homogenized, and centrifuged as above. This pellet was further resuspended in a smaller volume of ice cold 10 mM Tris-HCl buffer containing 0.1 mM EDTA (pH 7.4) and homogenized with a Polytron for 20-30 sec at 12,000 rpm. The protein content of this homogenate was determined with the Bio-Rad (Bradford) Protein Assay (Biorad Laboratories GmbH, München, Germany) according to the instructions of the manufacturer using gamma globulin as the standard. This homogenate was stored at −80° C. in aliquots and thawed immediately prior to use.
Aliquots of membrane preparations were thawed at RT, resuspended in assay buffer (D2, D3: 50 mM Tris-HCl, 120 mM NaCl, 5 mM MgCl2, 1 mM EDTA, 5 mM KCl, 1.5 mM CaCl2, pH=7.4; 5-HT2A: 50 mM Tris-HCl, 10 mM MgCl2, 1 mM EGTA, pH=7.4), homogenized with a Polytron for 20-30 sec at 12,000 rpm and adjusted to a final concentration of approximately 7.5 μg protein/well (D2, D3) and 15 μg protein/well (5-HT2A), respectively.
(§2) The binding affinity (Ki) of the compounds was determined using radioligand binding. Membranes were incubated in a total volume of 200 μl with a fixed concentration of radioligand (final concentration approximately 0.7 nM [^3H]-spiperone for D2, 0.5 nM [^3H]-spiperone for D3, and 1.1 nM [^3H]-ketanserin for 5-HT2A) and ten concentrations of test compound in ranging between 10 μM-0.1 nM for 1 h at RT. At the end of the incubation, the reaction mixtures were filtered on to unifilter 96-well white microplates with bonded GF/C filters (Packard BioScience, Zürich, Switzerland; preincubated for 1 h in 0.1% polyethylenimine (PEI) in assay buffer) with a Filtermate 196 harvester (Packard BioScience) and washed 3 times with cold assay buffer. The nonspecific binding was determined with equally composed reaction mixtures in the presence of 10 μM unlabelled spiperone. Per well 45 μl of Microscint 40 (Perkin Elmer, Schwerzenbach, Switzerland) was added, plates for sealed, shaken for 20 min and counted for 3 min on a Topcount Microplate Scintillation Counter (Canberra Packard SA, Zürich, Switzerland) with quenching correction.
(§3) The CPM value for each duplicate of a concentration of competing compound was averaged (y1), then the % specific binding was calculated according to the equation (((y1−non-specific)/(total binding−non-specific))×100). Graphs were plotted with the % specific binding using XLfit, a curve fitting program that iteratively plots the data using Levenburg Marquardt algorithm. The single site competition analysis equation used was y=A+((B−A)/(1+((x/C)^D))), where y is the % specific binding, A is the minimum y, B is the maximum y, C is the IC50, x is the log10 of the concentration of the competing compound and D is the slope of the curve (the Hill Coefficient). From these curves the IC50 (inhibition concentration at which 50% specific binding of the radioligand was displaced) and Hill coefficient were determined. The affinity constant (Ki) was calculated using the Cheng-Prusoff equation Ki=(IC50/1+([L]/Kd), where [L] is the concentration of radioligand and Kd is the dissociation constant of the radioligand at the receptor as determined by the saturation isotherm.

[2] = biological target: human D3 dopamine receptor (Homo sapiens (Human), UniProt P35462); assay: Radioligand binding ([3H]-spiperone) to cloned human D3 receptor expressed in HEK-293 EBNA cells; conditions: membranes of transfected HEK-293 EBNA cells, 0.5 nM [3H]-spiperone, 1 h at RT
Experimental: as §1, with “The pellet was suspended in cold 50 mM Tris-HCl buffer containing 10 mM EDTA (pH 7.4) and homogenized with a Polytron (Kinematica AG, Basel, Switzerland) for 20-30 sec at 12,000 rpm.” left out, “This pellet was further resuspended in a smaller volume of ice cold 10 mM Tris-HCl buffer containing 0.1 mM EDTA (pH 7.4) and homogenized with a Polytron for 20-30 sec at 12,000 rpm.” left out
as §2, §3

Sequence of human D3 dopamine receptor (P35462 whole entry): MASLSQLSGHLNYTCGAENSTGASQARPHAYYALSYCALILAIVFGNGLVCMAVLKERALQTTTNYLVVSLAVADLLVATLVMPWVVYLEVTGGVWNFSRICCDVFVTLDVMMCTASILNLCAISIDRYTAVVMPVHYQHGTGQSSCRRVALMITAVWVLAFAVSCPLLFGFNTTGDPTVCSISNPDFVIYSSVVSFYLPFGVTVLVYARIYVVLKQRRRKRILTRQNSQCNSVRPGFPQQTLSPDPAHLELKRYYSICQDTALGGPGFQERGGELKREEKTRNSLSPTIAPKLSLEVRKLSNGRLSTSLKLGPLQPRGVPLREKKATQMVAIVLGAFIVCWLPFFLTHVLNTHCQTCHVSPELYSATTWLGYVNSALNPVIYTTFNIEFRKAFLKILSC

Which Ki [1] does the source give for `CC(=O)N[C@H]1CC[C@H](CCN2CCC(c3noc4cc(F)ccc34)CC2)CC1` [Example 1, 4N-trans(4-{2-[4-(6-Fluoro-benzo[d]isoxazol-3-yl)-piperidin-1-yl]-ethyl}-cyclohexyl)-acetamide] here?
Its Ki is 2.22 nM.

What about the Ki [2] of the same compound?
Its Ki is 4.96 nM.

For `O=C(N[C@H]1CC[C@H](CCN2CCC(c3noc4cc(F)ccc34)CC2)CC1)C1CCOCC1` [Example 2, Tetrahydro-pyran-4-carboxylic acid trans(4-{2-[4-(6-fluoro-benzo[d]isoxazol-3-yl)-piperidin-1-yl]-ethyl}-cyclohexyl)-amide], which Ki [1] is on record?
The Ki was 1.74 nM.

And the Ki [2]?
Its Ki is 9.74 nM.

What does the source list for `COCCC(=O)N[C@H]1CC[C@H](CCN2CCC(c3noc4cc(F)ccc34)CC2)CC1` [Example 3, N-trans (4-{2-[4-(6-Fluoro-benzo[d]isoxazol-3-yl)-piperidin-1-yl]-ethyl}-cyclohexyl)-3-methoxy-propionamide]?
Ki [1]: 1.81 nM; Ki [2]: 4.75 nM

How did the Ki [1] turn out when `O=C(N[C@H]1CC[C@H](CCN2CCC(c3noc4cc(F)ccc34)CC2)CC1)c1ccc(N2CCOCC2)cc1` [Example 4, N-trans-(4-{2-[4-(6-Fluoro-benzo[d]isoxazol-3-yl)-piperidin-1-yl]-ethyl}-cyclohexyl)-4-morpholin-4-yl-benzamide] was run?
Its Ki is 9.52 nM.

What does the source list for `O=C(N[C@H]1CC[C@H](CCN2CCC(c3noc4cc(F)ccc34)CC2)CC1)c1ccc(N2CCOCC2)nc1` [Example 4A, N-Trans (4-{2-[4-(6-Fluoro-benzo[d]isoxazol-3-yl)-piperidin-1-yl]-ethyl}-cyclohexyl)-6-morpholin-4-yl-nicotinamide]?
Ki [1]: 2.7 nM; Ki [2]: 7.95 nM

`O=C(N[C@H]1CC[C@H](CCN2CCC(c3noc4cc(F)ccc34)CC2)CC1)c1cnc(N2CCOCC2)cn1` [Example 4B, 5-Morpholin-4-yl-pyrazine-2-carboxylic acid trans (4-{2-[4-(6-fluoro-benzo[d]isoxazol-3-yl)-piperidin-1-yl]-ethyl}-cyclohexyl)-amide] was tested. Which Ki [1] did it give?
The Ki was 3.81 nM.

And the Ki [2]?
The Ki was 19.4 nM.

With `O=C(N[C@H]1CC[C@H](CCN2CCC(c3noc4cc(F)ccc34)CC2)CC1)c1ccc(N2CCOCC2)nn1` [Example 4C, 6-Morpholin-4-yl-pyridazine-3-carboxylic acid-trans (4-{2-[4-(6-fluoro-benzo[d]isoxazol-3-yl)-piperidin-1-yl]-ethyl}-cyclohexyl)-amide] as the compound, how does the Ki [1] read?
The Ki was 3.18 nM.

And the Ki [2]?
The Ki was 25.3 nM.

For `O=C(N[C@H]1CC[C@H](CCN2CCC(c3noc4cc(F)ccc34)CC2)CC1)c1cnc(N2CCOCC2)nc1` [Example 4D, 2-Morpholin-4-yl-pyrimidine-5-carboxylic acid trans (4-{2-[4-(6-fluoro-benzo[d]isoxazol-3-yl)-piperidin-1-yl]-ethyl}-cyclohexyl)-amide], which Ki [1] is on record?
The Ki was 2.45 nM.

What about the Ki [2] of the same compound?
Its Ki is 15.3 nM.

How did the Ki [1] turn out when `O=C(N[C@H]1CC[C@H](CCN2CCC(c3noc4cc(F)ccc34)CC2)CC1)c1ccc(N2CCOCC2)c(F)c1` [Example 5, 3-Fluoro-N-trans (4-{2-[4-(6-fluoro-benzo[d]isoxazol-3-yl)-piperidin-1-yl]-ethyl}-cyclohexyl)-4-morpholin-4-yl-benzamide] was run?
The Ki was 17.5 nM.

And the Ki [2]?
The Ki was 45.3 nM.

What does the source list for `CN(C)c1ccc(C(=O)N[C@H]2CC[C@H](CCN3CCC(c4noc5cc(F)ccc45)CC3)CC2)cc1` [Example 6, 4-Dimethylamino-N-trans (4-{2-[4-(6-fluoro-benzo[d]isoxazol-3-yl)-piperidin-1-yl]-ethyl}-cyclohexyl)-benzamide]?
Ki [1]: 11.4 nM; Ki [2]: 11.5 nM

For `O=C(Cc1ccc2c(c1)OCO2)N[C@H]1CC[C@H](CCN2CCC(c3noc4cc(F)ccc34)CC2)CC1` [Example 7, 2-Benzo[1,3]dioxo1-5-yl-N-trans (4-{2-[4-(6-fluoro-benzo[d]isoxazol-3-yl)-piperidin-1-yl]-ethyl}-cyclohexyl)-acetamide], which Ki [1] is on record?
Its Ki is 2.09 nM.

And the Ki [2]?
The Ki was 4.02 nM.

With `COc1ccc(C(=O)N[C@H]2CC[C@H](CCN3CCC(c4noc5cc(F)ccc45)CC3)CC2)cc1` [Example 8, N-trans-(4-{2-[4-(6-Fluoro-benzo[d]isoxazol-3-yl)-piperidin-1-yl]-ethyl}-cyclohexyl)-4-methoxy-benzamide] as the compound, how does the Ki [1] read?
Its Ki is 3.65 nM.

And the Ki [2]?
The Ki was 4.53 nM.

Which results are given for `CC(C)(C)Oc1ccc(C(=O)N[C@H]2CC[C@H](CCN3CCC(c4noc5cc(F)ccc45)CC3)CC2)cc1` [Example 9, 4-tert-Butoxy-N-trans (4-{2-[4-(6-fluoro-benzo[d]isoxazol-3-yl)-piperidin-1-yl]-ethyl}-cyclohexyl)-benzamide]?
Ki [1]: 1.72 nM; Ki [2]: 3.42 nM

How did the Ki [1] turn out when `O=C(N[C@H]1CC[C@H](CCN2CCC(c3noc4cc(F)ccc34)CC2)CC1)c1ccc(Cl)cc1` [Example 10, 4-Chloro-N-trans (4-{2-[4-(6-fluoro-benzo[d]isoxazol-3-yl)-piperidin-1-yl]-ethyl}-cyclohexyl)-benzamide] was run?
The Ki was 2.67 nM.

What about the Ki [2] of the same compound?
Its Ki is 3.5 nM.

Which Ki [1] does the source give for `O=C(N[C@H]1CC[C@H](CCN2CCC(c3noc4cc(F)ccc34)CC2)CC1)c1ccc(N2CCS(=O)(=O)CC2)cc1` [Example 11, 4-(1,1-Dioxo-1,6-thiomorpholin-4-yl)-N-trans (4-{2-[4-(6-fluoro-benzo[d]isoxazol-3-yl)-piperidin-1-yl]-ethyl}-cyclohexyl)-benzamide] here?
The Ki was 2.48 nM.

And the Ki [2]?
The Ki was 4.67 nM.

Which Ki [1] does the source give for `O=C(N[C@H]1CC[C@H](CCN2CCC(c3noc4cc(F)ccc34)CC2)CC1)c1ccnc(N2CCOCC2)c1` [Example 12, N-trans (4-{2-[4-(6-Fluoro-benzo[d]isoxazol-3-yl)-piperidin-1-yl]-ethyl}-cyclohexyl)-2-morpholin-4-yl-isonicotinamide] here?
Its Ki is 2.46 nM.

`O=C(N[C@H]1CC[C@H](CCN2CCC(c3noc4ccc(F)cc34)CC2)CC1)c1ccc2c(c1)OCO2` [Example 30, Benzo[1,3]dioxole-5-carboxylic acid trans (4-{2-[4-(5-fluoro-benzo[d]isoxazol-3-yl)-piperidin-1-yl]-ethyl}-cyclohexyl)-amide] was tested. Which Ki [1] did it give?
Its Ki is 11.2 nM.

For `O=C(CC1CCCCO1)N[C@H]1CC[C@H](CCN2CCC(c3noc4cc(Cl)ccc34)CC2)CC1` (stereo partly drawn) [Example 34, N-trans (4-{2-[4-(6-Chloro-benzo[d]isoxazol-3-yl)-piperidin-1-yl]-ethyl}-cyclohexyl)-2-(tetrahydro-pyran-2-yl)-acetamide], which Ki [1] is on record?
The Ki was 5.83 nM.

Which Ki [1] does the source give for `O=C(C[C@@H]1CCCCO1)N[C@H]1CC[C@H](CCN2CCC(c3noc4cc(Cl)ccc34)CC2)CC1` [Example 34A, N-trans (4-{2-[4-(6-Chloro-benzo[d]isoxazol-3-yl)-piperidin-1-yl]-ethyl}-cyclohexyl)-2-(R)-tetrahydro-pyran-2-yl-acetamide] here?
Its Ki is 13.7 nM.

For `O=C(C[C@H]1CCCCO1)N[C@H]1CC[C@H](CCN2CCC(c3noc4cc(Cl)ccc34)CC2)CC1` [Example 34B, N-trans (4-{2-[4-(6-Chloro-benzo[d]isoxazol-3-yl)-piperidin-1-yl]-ethyl}-cyclohexyl)-2-(S)-tetrahydro-pyran-2-yl-acetamide], which Ki [1] is on record?
Its Ki is 15.3 nM.
